Results taken from patent US20230406840A1, “N-(2-(3-CYANO-2-AZABICYCLO[3.1.0]HEXAN-2-YL)-2-OXOETHYL)QUINOLINE-4-CARBOXAMIDES” (AstraZeneca AB, priority 2022, published 2023).
Values after ≈ are worked out from the molar mass of the structure shown.

Columns and labels:
[1] = Metabolic stability in human liver microsomes (HLM); assay type: in vitro ADME
Procedure: Metabolic stability in HLM was measured as described in J Comput Aided Mol Des 2015, 29, 795.

hFAP = hFAP (Homo sapiens (Human), UniProt Q12884);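 note: fluorescence read after incubating enzyme with substrate at room temperature, IC50 fitted from percent inhibition against log concentration with a one-site model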
Chain of hFAP (Q12884 38-760): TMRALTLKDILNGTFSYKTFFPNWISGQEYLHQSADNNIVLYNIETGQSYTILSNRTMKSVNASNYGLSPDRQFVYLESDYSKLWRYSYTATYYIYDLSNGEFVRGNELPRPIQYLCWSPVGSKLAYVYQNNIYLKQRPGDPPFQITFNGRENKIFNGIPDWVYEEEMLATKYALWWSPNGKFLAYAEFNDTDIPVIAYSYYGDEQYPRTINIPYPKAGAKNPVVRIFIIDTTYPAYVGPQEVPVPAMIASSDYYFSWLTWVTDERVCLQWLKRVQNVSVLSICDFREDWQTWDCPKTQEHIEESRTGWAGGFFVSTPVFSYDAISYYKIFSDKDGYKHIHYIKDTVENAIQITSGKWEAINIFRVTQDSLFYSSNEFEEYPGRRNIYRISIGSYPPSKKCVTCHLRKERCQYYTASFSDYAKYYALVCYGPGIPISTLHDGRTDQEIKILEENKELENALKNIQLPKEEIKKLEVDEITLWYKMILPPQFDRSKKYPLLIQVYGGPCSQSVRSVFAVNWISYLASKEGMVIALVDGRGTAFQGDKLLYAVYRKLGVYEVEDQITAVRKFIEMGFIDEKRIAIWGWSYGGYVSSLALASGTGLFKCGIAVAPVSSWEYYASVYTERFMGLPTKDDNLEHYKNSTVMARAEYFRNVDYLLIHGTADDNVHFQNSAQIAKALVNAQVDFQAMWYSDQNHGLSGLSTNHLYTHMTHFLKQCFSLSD

FAP Human Plasma = FAP Human Plasma (Homo sapiens (Human), UniProt Q12884); test: FAP plasma inhibition assay, human plasma; assay type: biochemical; details: human plasma dilution 1:40, Ala-Pro-AMC 75 μM; n = 1
Chain of FAP Human Plasma (Q12884 24-760 limits assumed): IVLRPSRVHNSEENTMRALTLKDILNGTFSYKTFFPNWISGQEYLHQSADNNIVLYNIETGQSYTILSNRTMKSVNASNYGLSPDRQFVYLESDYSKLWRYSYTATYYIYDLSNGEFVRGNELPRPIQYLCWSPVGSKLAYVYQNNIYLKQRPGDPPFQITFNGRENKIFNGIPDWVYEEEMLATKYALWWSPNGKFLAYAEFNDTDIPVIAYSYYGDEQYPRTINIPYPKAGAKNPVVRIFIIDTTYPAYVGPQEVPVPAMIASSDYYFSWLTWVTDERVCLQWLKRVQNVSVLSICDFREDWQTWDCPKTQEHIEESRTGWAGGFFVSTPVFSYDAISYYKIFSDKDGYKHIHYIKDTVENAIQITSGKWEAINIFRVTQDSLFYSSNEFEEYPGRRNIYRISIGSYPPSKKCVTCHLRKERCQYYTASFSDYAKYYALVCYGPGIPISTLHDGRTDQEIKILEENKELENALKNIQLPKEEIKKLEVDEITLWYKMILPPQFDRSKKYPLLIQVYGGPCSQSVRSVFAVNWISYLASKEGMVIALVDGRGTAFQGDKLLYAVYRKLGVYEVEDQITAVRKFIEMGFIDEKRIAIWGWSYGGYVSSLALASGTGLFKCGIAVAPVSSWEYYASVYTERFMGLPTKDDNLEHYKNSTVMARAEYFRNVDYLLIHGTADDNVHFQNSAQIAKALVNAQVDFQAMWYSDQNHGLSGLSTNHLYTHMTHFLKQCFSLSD
Procedure: (§1) This assay was adapted from the method described in Example 53 for detection of FAP target engagement enzyme activity in plasma. Plasma (anticoagulant K2EDTA) was used as the enzyme source: Human plasma (Pooled from AZ Biobank) and Mouse plasma (AZ AST Biobank). 384-Well black fluotrack PS plates (Greiner 781076) were used. 20 μL diluted plasma (Human plasma dilution 1:40, Mouse plasma dilution 1:67) in buffer (PBS, 0.1% BSA) was added to 0.6 μL compounds (in DMSO). Compounds were tested using 10 CR, 3-fold dilution series from 500 nM FAC. Two replicates for each assay point were run on the same plate. A fluorescence blank read was taken before substrate addition. Substrate, Ala-Pro-AMC (ARI-3144) stock solution (20 mM in DMSO) was diluted in buffer (PBS, 0.1% BSA) to 150 μM concentration and 20 μL added giving 75 μM FAC. Plates were incubated for 40 min at rt in the dark. The plates were read on a Beckman Paradigm® reader with excitation 360 nm and emission 465 nm. Data were analyzed in Excel (IDBS XLfit Add-In) using a one site dose response model (4-parameter logistic fit). […] Raw data signals were normalized using 1.5% DMSO in diluted plasma as 0% control and 1.5% DMSO in buffer (no plasma) as 100% inhibitor control.

FAP Mouse Plasma = FAP Mouse Plasma (Mus musculus (Mouse), UniProt P97321); test: FAP plasma inhibition assay, mouse plasma; assay type: biochemical; details: mouse plasma dilution 1:67, Ala-Pro-AMC 75 μM; n = 1
Chain of FAP Mouse Plasma (P97321 24-761 limits assumed): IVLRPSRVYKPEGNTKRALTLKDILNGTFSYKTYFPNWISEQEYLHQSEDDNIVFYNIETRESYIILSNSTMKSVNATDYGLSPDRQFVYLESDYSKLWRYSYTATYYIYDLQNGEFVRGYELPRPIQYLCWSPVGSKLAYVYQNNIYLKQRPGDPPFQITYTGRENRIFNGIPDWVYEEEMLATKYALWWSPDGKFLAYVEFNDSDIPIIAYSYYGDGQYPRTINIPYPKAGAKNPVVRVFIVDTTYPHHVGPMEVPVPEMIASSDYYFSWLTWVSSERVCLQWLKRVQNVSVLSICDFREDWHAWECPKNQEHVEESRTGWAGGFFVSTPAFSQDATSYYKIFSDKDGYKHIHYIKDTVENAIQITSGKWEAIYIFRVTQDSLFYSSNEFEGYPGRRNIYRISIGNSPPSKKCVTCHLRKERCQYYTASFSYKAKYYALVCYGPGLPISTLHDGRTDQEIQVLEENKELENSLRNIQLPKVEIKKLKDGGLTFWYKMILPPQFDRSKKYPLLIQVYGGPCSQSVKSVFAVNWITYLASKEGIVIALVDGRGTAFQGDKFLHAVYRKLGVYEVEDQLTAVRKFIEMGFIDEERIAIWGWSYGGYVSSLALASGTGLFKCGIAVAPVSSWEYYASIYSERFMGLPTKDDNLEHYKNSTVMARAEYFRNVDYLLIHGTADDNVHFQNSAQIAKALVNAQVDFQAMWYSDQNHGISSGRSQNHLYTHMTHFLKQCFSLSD
Procedure: as §1

[2] = molecular target: Prolyl Oligopeptidase (hPREP) (Homo sapiens (Human), UniProt P48147); test: hPREP inhibition assay; assay type: biochemical; details: hPREP 0.6 nM, Z-Gly-Pro-amino-methylcoumarin 50 μM; read-out: PREP IC50
Chain of Prolyl Oligopeptidase (hPREP) (P48147 whole entry): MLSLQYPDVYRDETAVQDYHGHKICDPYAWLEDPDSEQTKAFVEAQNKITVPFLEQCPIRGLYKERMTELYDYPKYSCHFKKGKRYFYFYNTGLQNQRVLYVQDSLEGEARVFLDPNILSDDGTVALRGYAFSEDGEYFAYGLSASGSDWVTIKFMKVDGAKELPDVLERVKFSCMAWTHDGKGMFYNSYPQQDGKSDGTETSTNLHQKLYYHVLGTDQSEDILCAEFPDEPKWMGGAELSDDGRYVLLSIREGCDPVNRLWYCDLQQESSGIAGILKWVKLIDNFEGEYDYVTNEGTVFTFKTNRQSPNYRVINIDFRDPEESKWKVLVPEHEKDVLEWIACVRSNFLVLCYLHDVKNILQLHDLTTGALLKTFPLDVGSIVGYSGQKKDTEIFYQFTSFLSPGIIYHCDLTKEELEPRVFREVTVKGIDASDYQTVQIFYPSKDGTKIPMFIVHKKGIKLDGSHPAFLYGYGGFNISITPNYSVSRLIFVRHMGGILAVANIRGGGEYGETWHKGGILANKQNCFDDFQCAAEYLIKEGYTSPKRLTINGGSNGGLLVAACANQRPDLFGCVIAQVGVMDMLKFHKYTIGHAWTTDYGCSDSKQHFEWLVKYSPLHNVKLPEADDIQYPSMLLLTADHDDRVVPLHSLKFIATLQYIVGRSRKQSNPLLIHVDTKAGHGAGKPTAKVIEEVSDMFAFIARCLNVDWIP
Procedure: Compounds were tested in a biochemical inhibition assay using Prolyl endopeptidase, Prolyl Oligopeptidase (hPREP) enzyme at 0.6 nM FAC (R&D Systems, 4308-SE) and the substrate Z-Gly-Pro-amino-methylcoumarin (Bachem, I-1145) at 50 μM FAC. 384 Low volume black plates (Greiner #784076) were used. […] 4 μL, 100 μM substrate solution (25 mM Tris HCl, 250 mM NaCl, 0.01% Triton X-100, 5 mM Glutathione, pH 7.5) was added to each well. Plates were centrifuged at 1000 rpm and incubated for 20 min at rt in dark. […] Data were analyzed in Genedata Screener®.

Kinetic solubility = assay type: physicochemical; details: kinetic from dmso stock
Procedure: Kinetic solubility was measured as described in Comput Aided Mol Des 2015, 29, 795.

Rat Hepatocytes (rHep) = test: Metabolic stability in rat hepatocytes (rHep); assay type: in vitro ADME
Procedure: Metabolic stability in rat hepatocytes was measured as described in J Comput Aided Mol Des 2015, 29, 795.

Human Hepatocytes (hHep) = test: Metabolic stability in human hepatocytes (hHep); assay type: in vitro ADME
Procedure: Metabolic stability in human hepatocytes was measured as described in Xenobiotica 2010, 40, 637.

[3] = molecular target: human Fibroblast activation protein alpha (hFAP) (Homo sapiens (Human), UniProt Q12884); test: hFAP inhibition assay (tight binders); assay type: biochemical; details: tight-binder format, Ala-Pro-AMC 20 μM, 2.5 h incubation; n = 1 or geometric mean (n = 5-10)
Chain of human Fibroblast activation protein alpha (hFAP) (Q12884 38-760): as the sequence (Q12884 38-760) above
Procedure: Data were analyzed in Genedata Screener®.

[4] = Caco-2 AB intrinsic permeability; assay type: in vitro ADME; details: human, A to B, read-out: Caco2 AB Intrinsic Papp
Procedure: (§2) Caco-2 cell permeability was measured as described in Mol/Pharm 2017, 14, 1601.

[5] = Caco-2 bidirectional (ABBA) permeability; assay type: in vitro ADME; details: human
Procedure: as §2

hFAP (M39-A757) = hFAP (M39-A757) (Homo sapiens (Human), UniProt Q12884)
Chain of hFAP (M39-A757) (Q12884 39-757): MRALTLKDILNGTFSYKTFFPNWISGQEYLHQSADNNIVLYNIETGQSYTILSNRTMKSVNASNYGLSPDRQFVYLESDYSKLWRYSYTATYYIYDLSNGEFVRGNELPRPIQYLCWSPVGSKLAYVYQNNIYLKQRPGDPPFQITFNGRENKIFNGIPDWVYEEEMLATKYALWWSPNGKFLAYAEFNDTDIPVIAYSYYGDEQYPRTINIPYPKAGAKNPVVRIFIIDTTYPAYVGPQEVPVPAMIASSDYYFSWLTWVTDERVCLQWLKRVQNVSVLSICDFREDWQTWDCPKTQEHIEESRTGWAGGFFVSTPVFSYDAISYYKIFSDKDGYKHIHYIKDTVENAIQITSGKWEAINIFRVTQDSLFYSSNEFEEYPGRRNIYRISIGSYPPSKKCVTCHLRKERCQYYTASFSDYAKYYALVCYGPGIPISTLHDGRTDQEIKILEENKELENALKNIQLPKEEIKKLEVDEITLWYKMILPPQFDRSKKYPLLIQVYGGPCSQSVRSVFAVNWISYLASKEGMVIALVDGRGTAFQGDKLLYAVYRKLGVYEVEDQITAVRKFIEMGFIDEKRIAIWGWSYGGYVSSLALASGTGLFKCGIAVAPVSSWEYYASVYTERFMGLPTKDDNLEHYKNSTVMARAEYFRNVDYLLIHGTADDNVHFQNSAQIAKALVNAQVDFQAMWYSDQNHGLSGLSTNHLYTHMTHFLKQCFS
Procedure: Compounds were tested in a direct binding assay using 8K surface plasmon resonance biosensor (GE Healthcare) at 20° C. Immobilization of hFAP (M39-A757) on a CMD200M sensor chip (Xantec) was performed using standard amine coupling procedure in immobilization buffer (10 mM HEPES, 150 mM NaCl, 0.05% Tween20, pH 7.4). The surface was washed with 10 mM NaOH, 1M NaCl before being activated with EDC/NHS (GE Healthcare), followed by immobilization of hFAP (in 10 mM Acetate pH 5.0). Finally, the surface was deactivated by ethanolamine. Immobilization levels of hFAP were around 4000-6000 RU. The reference spot was treated as described, omitting the injection of hFAP. Compound concentration series were injected over the immobilized protein in increasing concentrations (2-500 nM) using single cycle kinetics in running buffer (20 mM TRIS, 150 mM NaCl, 0.05% Tween20, 1% DMSO, pH 7.4). Interaction models were fitted globally to the experimental traces, enabling determination of kon, koff and Kd.

Structure (SMILES) | microsomal CLint [1] | IC50 (hFAP) | IC50 (FAP Human Plasma) | IC50 (FAP Mouse Plasma) | IC50 [2] | solubility (Kinetic solubility) | rHeps CLint (Rat Hepatocytes (rHep)) | hHep CLint (Human Hepatocytes (hHep)) | IC50 [3] | Papp [4] | Papp A→B ([5]; A to B, read-out: Caco2 Bidirectional (ABBA) A to B Papp) | Papp B→A ([5]; B to A, read-out: Caco2 Bidirectional (ABBA) B to A Papp) | efflux ratio ([5]; read-out: Caco2 Bidirectional (ABBA) Efflux Ratio) | Kd (hFAP (M39-A757))
N#C[C@@H]1C[C@@H]2C[C@@H]2N1C(=O)CNC(=O)c1ccnc2ccc(Br)cc12 [Example 1, 6-Bromo-N-(2-((1S,3S,5S)-3-cyano-2-azabicyclo[3.1.0]hexan-2-yl)-2-oxoethyl)quinoline-4-carboxamide] | 9.7 µL/min/mg | 2 nM | 23 nM | 20 nM | 27000 nM | 290 µM (≈ 116 µg/mL) | 3.8 μL/min/1E6 | 2.8 μL/min/1E6 | 0.44 nM |  |  |  |  | 
N#C[C@@H]1C[C@@H]2C[C@@H]2N1C(=O)CNC(=O)c1ccnc2cc(Br)ccc12 [Example 3, 7-Bromo-N-(2-((1S,3S,5S)-3-cyano-2-azabicyclo[3.1.0]hexan-2-yl)-2-oxoethyl)quinoline-4-carboxamide] | < 3 µL/min/mg | 0.68 nM | 15 nM | 15 nM | > 50000 nM | 210 µM (≈ 83.8 µg/mL) | 4.5 μL/min/1E6 | <1 μL/min/1E6 | 0.12 nM |  |  |  |  | 
Cc1ccc2nccc(C(=O)NCC(=O)N3[C@H](C#N)C[C@@H]4C[C@@H]43)c2c1 [Example 9, N-(2-((1S,3S,5S)-3-Cyano-2-azabicyclo[3.1.0]hexan-2-yl)-2-oxoethyl)-6-methylquinoline-4-carboxamide] |  | < 2.8 nM | 7.5 nM | 2.7 nM | > 50000 nM |  |  |  | 0.56 nM |  |  |  |  | 
N#C[C@@H]1C[C@@H]2C[C@@H]2N1C(=O)CNC(=O)c1ccnc2ccc(C(F)(F)F)cc12 [Example 10, N-(2-((1S,3S,5S)-3-Cyano-2-azabicyclo[3.1.0]hexan-2-yl)-2-oxoethyl)-6-(trifluoromethyl)quinoline-4-carboxamide] | 37 µL/min/mg | 4.8 nM | 34 nM | 15 nM | > 50000 nM | 140 µM (≈ 54.4 µg/mL) | 6.7 μL/min/1E6 | 7 μL/min/1E6 |  |  |  |  |  | 
Cc1ccc2c(C(=O)NCC(=O)N3[C@H](C#N)C[C@@H]4C[C@@H]43)cc(C)nc2c1 [Example 31, N-(2-((1S,3S,5S)-3-Cyano-2-azabicyclo[3.1.0]hexan-2-yl)-2-oxoethyl)-2,7-dimethylquinoline-4-carboxamide] | 6.2 µL/min/mg | 31 nM | 320 nM |  | 38000 nM | > 1000 µM | 1.6 μL/min/1E6 | <1 μL/min/1E6 | 11 nM | 56 ×10⁻⁶ cm/s |  |  |  | 
N#C[C@@H]1C[C@@H]2C[C@@H]2N1C(=O)CNC(=O)c1ccnc2cc(C3CC3)ccc12 [Example 37, N-(2-((1S,3S,5S)-3-Cyano-2-azabicyclo[3.1.0]hexan-2-yl)-2-oxoethyl)-7-cyclopropylquinoline-4-carboxamide] | 8.4 µL/min/mg | < 1.7 nM | 5.5 nM | 2.4 nM | > 50000 nM | 810 µM (≈ 292 µg/mL) | 49 μL/min/1E6 | 2.3 μL/min/1E6 | 0.3 nM | 29 ×10⁻⁶ cm/s | 18 ×10⁻⁶ cm/s | 33 ×10⁻⁶ cm/s | 1.8 | 

Results, then the compound that gave them:

microsomal CLint [1] | IC50 (hFAP) | IC50 (FAP Human Plasma) | IC50 (FAP Mouse Plasma) | IC50 [2] | solubility (Kinetic solubility) | rHeps CLint (Rat Hepatocytes (rHep)) | hHep CLint (Human Hepatocytes (hHep)) | IC50 [3] | Papp [4] | Papp A→B ([5]; A to B, read-out: Caco2 Bidirectional (ABBA) A to B Papp) | Papp B→A ([5]; B to A, read-out: Caco2 Bidirectional (ABBA) B to A Papp) | efflux ratio ([5]; read-out: Caco2 Bidirectional (ABBA) Efflux Ratio) | Kd (hFAP (M39-A757)) | Structure (SMILES)
< 3 µL/min/mg | 38 nM | 380 nM | 300 nM |  | 120 µM (≈ 43.7 µg/mL) | <1 μL/min/1E6 | <1 μL/min/1E6 |  |  |  |  |  |  | COc1ccc2c(C(=O)NCC(=O)N3[C@H](C#N)C[C@@H]4C[C@@H]43)cc(C)nc2c1 [Example 41, N-(2-((1S,3S,5S)-3-Cyano-2-azabicyclo[3.1.0]hexan-2-yl)-2-oxoethyl)-7-methoxy-2-methylquinoline-4-carboxamide]
> 300 µL/min/mg | 4.6 nM |  |  | > 50000 nM | 510 µM (≈ 218 µg/mL) | 150 μL/min/1E6 |  | 1.1 nM |  |  |  |  | 12 nM | N#C[C@@H]1C[C@@H]2C[C@@H]2N1C(=O)CNC(=O)c1ccnc2ccc(C3(C(F)(F)F)CC3)cc12 [Example 44, N-(2-((1S,3S,5S)-3-Cyano-2-azabicyclo[3.1.0]hexan-2-yl)-2-oxoethyl)-6-(1-(trifluoromethyl)cyclopropyl)quinoline-4-carboxamide]
120 µL/min/mg | 0.76 nM |  |  | > 50000 nM | > 1000 µM | 40 μL/min/1E6 |  | 0.25 nM |  |  |  |  | 7.3 nM | CCOC1(c2ccc3nccc(C(=O)NCC(=O)N4[C@H](C#N)C[C@@H]5C[C@@H]54)c3c2)CC1 [Example 45, N-(2-((1S,3S,5S)-3-Cyano-2-azabicyclo[3.1.0]hexan-2-yl)-2-oxoethyl)-6-(1-ethoxycyclopropyl)quinoline-4-carboxamide]
20 µL/min/mg | 1.7 nM |  |  | > 50000 nM | 110 µM (≈ 42.4 µg/mL) | 6.6 μL/min/1E6 | <1 μL/min/1E6 | 0.18 nM |  |  |  |  | 25 nM | N#C[C@@H]1C[C@@H]2C[C@@H]2N1C(=O)CNC(=O)c1ccnc2ccc(C3(C#N)CC3)cc12 [Example 46, N-(2-((1S,3S,5S)-3-Cyano-2-azabicyclo[3.1.0]hexan-2-yl)-2-oxoethyl)-6-(1-cyanocyclopropyl)quinoline-4-carboxamide]
